Assay results published in US9315475B2 (MERCK SHARP & DOHME CORP., priority 2011, dated 2016).

Experiments:
[1] = target: T1, wildtype HIV-1 protease (Human immunodeficiency virus type 1 group M subtype B, UniProt P04585); test: Assay for inhibition of microbial expressed HIV protease (Pepcleav); assay type: biochemical; conditions: wild type HIV-1 protease expressed in E. coli, peptide substrate, pH 5.5; mean of at least two independent experiments; read-out: Pepcleav
T1 construct: the wildtype HIV-1 protease (which was expressed in Escherichia coli); made in house; host or cells: Escherichia coli
How it was run: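 E. coli-expressed wild-type HIV-1 protease (20 pM) preincubated 30 min at room temperature with inhibitor in pH 5.5 sodium acetate/NaCl/BSA buffer, then 400 μM Val-Ser-Gln-Asn-(βnaphthyl)Ala-Pro-Ile-Val added for 1 h at 30 °C. Quenched with formic acid; product quantified by LC-MS/MS peak area, indinavir internal standard.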

[2] = test system: HIV-1 (H9IIIB strain); test: Antiviral acute infection assay in cell culture (Spread); assay type: cell-based; conditions: Human immunodeficiency virus 1, T-lymphoid, HIV-1 H9IIIB infection of MT-4 human T-lymphoid cells in 10% FBS; mean of at least two independent experiments
Excerpt: Antiviral Assays in Cell Culture (“Spread”)
Acute Infection Assay (“Spread”) data were generated using HIV-1 (H9IIIB strain) infection of MT-4 human T-lymphoid cells in 10% FBS, and according to the methods disclosed by J. P. Vacca et al, “L-735,524: An orally bioavailable human immunodeficiency virus type 1 protease inhibitor,” Proc. Natl. Acad. Sci. USA, Vol. 91, pp. 4096-4100 (April 1994).

| Structure (SMILES) | IC50 [1] | EC50 [2] |
| --- | --- | --- |
| N[C@H](C(=O)Nc1cccc(F)c1CC[C@@H]1CN[C@H](COC(=O)NCC(F)(F)F)CO1)[C@H](c1ccc(F)cc1)c1ccc(F)c(F)c1 [Example 270, (βR)-β-(3,4-difluorophenyl)-4-fluoro-N-(3-fluoro-2-{2-[(2R,5S)-5-({[(2,2,2-trifluoroethyl)carbamoyl]oxy}methyl)morpholin-2-yl]ethyl}phenyl)-L-phenylalaninamide] | 2.1 nM | 22 nM |
| N[C@H](C(=O)Nc1cncc(F)c1CC[C@@H]1CN[C@H](C(=O)Nc2ccccc2O)CO1)C(c1ccc(F)cc1)c1ccc(F)cc1 [Example 271, 4-fluoro-N-[5-fluoro-4-(2-{(2R,5S)-5-[(2-hydroxyphenyl)carbamoyl]morpholin-2-yl}ethyl)pyridin-3-yl]-β-(4-fluorophenyl)-L-phenylalaninamide] | 2 nM | 810 nM |
| N[C@H](C(=O)Nc1cncc(F)c1CC[C@@H]1CN[C@H](COC(=O)NCC(F)(F)F)CO1)[C@@H](c1ccc(F)cc1)c1cccc(C(F)(F)F)c1 [Example 272, (βS)-4-fluoro-N-(5-fluoro-4-{2-[(2R,5S)-5-({[(2,2,2-trifluoroethyl)carbamoyl]oxy}methyl)morpholin-2-yl]ethyl}pyridin-3-yl)-β-[3-(trifluoromethyl)phenyl]-L-phenylalaninamide] | 2 nM | 32 nM |
| N[C@H](C(=O)Nc1cccc(F)c1CC[C@@H]1CN[C@H](COC(=O)NCC(F)(F)F)CO1)[C@H](c1ccc(F)cc1)c1ccc(Cl)cc1 [Example 273, (βR)-β-(4-chlorophenyl)-4-fluoro-N-(3-fluoro-2-{2-[(2R,5S)-5-({[(2,2,2-trifluoroethyl)carbamoyl]oxy}methyl)morpholin-2-yl]ethyl}phenyl)-L-phenylalaninamide] | 1.4 nM | 20 nM |
| N[C@H](C(=O)Nc1cccc(F)c1CC[C@@H]1CN[C@H](COC(=O)NCC(F)(F)F)CO1)[C@@H](c1ccc(Cl)cc1)c1cccc(F)c1 [Example 274, (βS)-β-(4-chlorophenyl)-3-fluoro-N-(3-fluoro-2-{2-[(2R,5S)-5-({[(2,2,2-trifluoroethyl)carbamoyl]oxy}methyl)morpholin-2-yl]ethyl}phenyl)-L-phenylalaninamide] | 1.3 nM | 11 nM |
| N[C@H](C(=O)Nc1cncc(F)c1CC[C@@H]1CN[C@H](COC(=O)NCC(F)(F)F)CO1)[C@H](c1ccc(F)cc1)c1ccc(Br)cc1 [Example 275, (βR)-4-bromo-β-(4-fluorophenyl)-N-(5-fluoro-4-{2-[(2R,5S)-5-({[(2,2,2-trifluoroethyl)carbamoyl]oxy}methyl)morpholin-2-yl]ethyl}pyridin-3-yl)-L-phenylalaninamide] | 0.4 nM | 25 nM |
| N[C@H](C(=O)Nc1cncc(F)c1CC[C@@H]1CN[C@H](COC(=O)NC(CC(F)(F)F)c2ccc(F)cc2)CO1)C(c1ccc(F)cc1)c1ccc(F)cc1 (stereo partly drawn) [Example 276, 4-fluoro-β-(4-fluorophenyl)-N-[5-fluoro-4-(2-{(2R,5S)-5-[({[3,3,3-trifluoro-1-(4-fluorophenyl)propyl]carbamoyl}oxy)methyl]morpholin-2-yl}ethyl)pyridin-3-yl]-L-phenylalaninamide] | 0.2 nM | 28 nM |
| CC(C)OC(=O)N[C@H](C(=O)Nc1cncc(F)c1CC[C@@H]1CN[C@H](COC(=O)NCC(F)(F)F)CO1)C(c1ccc(F)cc1)c1ccc(F)cc1 [Example 277, 4-fluoro-β-(4-fluorophenyl)-N-(5-fluoro-4-{2-[(2R,5S)-5-({[(2,2,2-trifluoroethyl)carbamoyl]oxy}methyl)morpholin-2-yl]ethyl}pyridin-3-yl)-Nα-[(1-methylethoxy)carbonyl]-L-phenylalaninamide] | 3.2 nM | 23 nM |
| O=C(NCC(F)(F)F)OC[C@@H]1CO[C@H](CCc2c(F)cncc2NC(=O)[C@@H](NC(=O)OC2CCCC2)C(c2ccc(F)cc2)c2ccc(F)cc2)CN1 [Example 278, Nα-[(cyclopentyloxy)carbonyl]-4-fluoro-β-(4-fluorophenyl)-N-(5-fluoro-4-{2-[(2R,5S)-5-({[(2,2,2-trifluoroethyl)carbamoyl]oxy}methyl)morpholin-2-yl]ethyl}pyridin-3-yl)-L-phenylalaninamide] | 3.2 nM | 38 nM |
| O=C(NCC(F)(F)F)OC[C@@H]1CO[C@H](CCc2c(F)cncc2NC(=O)[C@@H](NC(=O)OCCF)C(c2ccc(F)cc2)c2ccc(F)cc2)CN1 [Example 279, 4-fluoro-Nα-[(2-fluoroethoxy)carbonyl]-β-(4-fluorophenyl)-N-(5-fluoro-4-{2-[(2R,5S)-5-({[(2,2,2-trifluoroethyl)carbamoyl]oxy}methyl)morpholin-2-yl]ethyl}pyridin-3-yl)-L-phenylalaninamide] | 1.9 nM | 57 nM |
| COC(=O)N[C@H](C(=O)Nc1cncc(F)c1CC[C@@H]1CN[C@H](COC(=O)NCC(F)(F)F)CO1)C(c1cccc(F)c1)c1cccc(F)c1 [Example 280, 3-fluoro-β-(3-fluorophenyl)-N-(5-fluoro-4-{2-[(2R,5S)-5-({[(2,2,2-trifluoroethyl)carbamoyl]oxy}methyl)morpholin-2-yl]ethyl}pyridin-3-yl)-Nα-(methoxycarbonyl)-L-phenylalaninamide] | 1 nM | 15 nM |
| COC(=O)N[C@H](C(=O)Nc1cncc(F)c1CC[C@@H]1CN[C@H](COC(=O)NCC(F)(F)F)CO1)[C@@H](c1ccc(F)cc1)c1cccc(F)c1 [Example 281, (βS)-3-fluoro-β-(4-fluorophenyl)-N-(5-fluoro-4-{2-[(2R, 5S)-5-({[(2,2,2-trifluoroethyl)carbamoyl]oxy}methyl)morpholin-2-yl]ethyl}pyridin-3-yl)-Nα-(methoxycarbonyl)-L-phenylalaninamide] | 0.9 nM | 14 nM |
| COC(=O)N[C@H](C(=O)Nc1cncc(F)c1CC[C@@H]1CN[C@H](COC(=O)NCC(F)(F)F)CO1)[C@H](c1ccc(F)cc1)c1cccc(F)c1 [Example 282, (βR)-4-fluoro-β-(3-fluorophenyl)-N-(5-fluoro-4-{2-[(2R,5S)-5-({[(2,2,2-trifluoroethyl)carbamoyl]oxy}methyl)morpholin-2-yl]ethyl}pyridin-3-yl)-Nα-(methoxycarbonyl)-L-phenylalaninamide] | 3.7 nM | 25 nM |
| COC(=O)N[C@H](C(=O)Nc1cncc(F)c1CC[C@@H]1CN[C@H](COC(=O)NCC(F)(F)F)CO1)[C@H](c1ccc(F)cc1)c1ccc(OC(F)(F)F)cc1 [Example 283] | 14 nM | 69 nM |
| COC(=O)N[C@H](C(=O)Nc1cccc(F)c1CC[C@@H]1CN[C@H](COC(N)=O)CO1)C(c1ccc(F)cc1)c1ccc(F)cc1 [Example 284, N-[2-(2-{(2R,5S)-5-[(carbamoyloxy)methyl]morpholin-2-yl}ethyl)-3-fluorophenyl]-4-fluoro-β-(4-fluorophenyl)-Nα-(methoxy-carbonyl)-L-phenylalaninamide] | 12 nM | 19 nM |
| COC(=O)N[C@H](C(=O)Nc1cccc(F)c1CC[C@@H]1CN[C@H](COC(=O)NCC(F)(F)F)CO1)C(c1ccc(F)cc1)c1ccc(F)cc1 [Example 285] | 13 nM | 21 nM |
| COC(=O)N[C@H](C(=O)Nc1cncc(F)c1CC[C@@H]1CN[C@H](COC(=O)NCC(F)(F)F)CO1)[C@H](c1ccc(F)cc1)c1ccc(C(F)(F)F)cc1 [Example 286] | 4.6 nM | 37 nM |
| COC(=O)N[C@H](C(=O)Nc1cccc(F)c1CC[C@@H]1CN[C@H](COC(=O)NCC(F)(F)F)CO1)[C@@H](c1ccc(F)cc1)c1cccc(F)c1 [Example 287] | 6 nM | 17 nM |
| COC(=O)N[C@H](C(=O)Nc1cncc(F)c1CC[C@@H]1CN[C@H](COC(=O)NCC(F)(F)F)CO1)[C@@H](c1ccc(F)cc1)c1ccc(F)c(F)c1 [Example 288] | 3.2 nM | 16 nM |
| COC(=O)N[C@H](C(=O)Nc1cccc(F)c1CC[C@@H]1CN[C@H](COC(=O)NCC(F)(F)F)CO1)[C@H](c1ccc(F)cc1)c1ccc2ccccc2c1 [Example 289] | 16 nM | 310 nM |
| COC(=O)N[C@H](C(=O)Nc1cccc(F)c1CC[C@@H]1CN[C@H](COC(=O)NCC(F)(F)F)CO1)[C@H](c1ccccc1)c1ccc2ccccc2c1 [Example 290, (βR)-N-(3-fluoro-2-{2-[(2R,5S)-5-({[(2,2,2-trifluoroethyl)carbamoyl]oxy}methyl)morpholin-2-yl]ethyl}phenyl)-Nα-(methoxycarbonyl)-β-naphthalen-2-yl-L-phenylalaninamide] | 30 nM | 600 nM |
| COC(=O)N[C@H](C(=O)Nc1cncc(F)c1CC[C@@H]1CN[C@H](COC(=O)NCC(F)(F)F)CO1)[C@H](c1ccccc1)c1ccc(OC(F)(F)F)cc1 [Example 291, (βR)-N-(5-fluoro-4-{2-[(2R,5S)-5-({[(2,2,2-trifluoroethyl)carbamoyl]oxy}methyl)morpholin-2-yl]ethyl}pyridin-3-yl)-Nα-(methoxycarbonyl)-β-phenyl-O-(trifluoromethyl)-L-tyrosinamide] | 28 nM | 110 nM |
